Source: patent US20220323548A1 (priority 2019, published 2022)
No end group written: not given here. *: point of attachment. undeca‑saccharide = not defined here; Decanoyl = CCCCCCCCCC(=O)*

B1: AGM-212(E17C-11 sugar) (peptide)
peptide: HGEGTFTSDLSKQMEEC(undeca‑saccharide)AVRLFIEWLKNGGPSK(Decanoyl)
modifications: reading uncertain
B2: AGM-212(E17C-11 sugar & E24C-11 sugar) (peptide)
peptide: HGEGTFTSDLSKQMEEC(undeca‑saccharide)AVRLFIC(undeca‑saccharide)WLKNGGPSK(Decanoyl)
modifications: reading uncertain
B3: AGM-212(E17C-11 sugar & N28C-11 sugar) (peptide)
peptide: HGEGTFTSDLSKQMEEC(undeca‑saccharide)AVRLFIEWLKC(undeca‑saccharide)GGPSK(Decanoyl)
modifications: reading uncertain

Legend:
[1] = biological target: human GLP-1R (Homo sapiens, UniProt P43220); experiment: GLP-1 receptor luciferase reporter assay (part I, glycosylated analogs); format: cell-based; conditions: CV-1 cells transfected with human GLP-1R and CRE, Table 2
Sequence of human GLP-1R (Homo sapiens, UniProt P43220) (P43220 24-463): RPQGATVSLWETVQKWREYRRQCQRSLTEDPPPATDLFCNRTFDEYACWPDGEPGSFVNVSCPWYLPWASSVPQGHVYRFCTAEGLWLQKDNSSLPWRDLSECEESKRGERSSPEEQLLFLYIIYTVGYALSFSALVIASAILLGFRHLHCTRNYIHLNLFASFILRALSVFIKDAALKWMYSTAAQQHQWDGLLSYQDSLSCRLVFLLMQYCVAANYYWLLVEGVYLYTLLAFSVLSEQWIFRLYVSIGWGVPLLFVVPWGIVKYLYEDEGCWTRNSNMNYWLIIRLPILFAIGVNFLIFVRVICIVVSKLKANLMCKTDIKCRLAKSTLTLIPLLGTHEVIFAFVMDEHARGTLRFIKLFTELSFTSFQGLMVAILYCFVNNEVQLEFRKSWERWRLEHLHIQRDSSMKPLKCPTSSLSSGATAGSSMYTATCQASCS
Description: Specifically, the fibroblast cell line CV-1 (1×10^4 cells/ml, Korea Cell Line Bank) was cultured on a 96-well white cell culture plate for 24 hours, and then human GLP-1R (pcDNA3.1_hGLP-1R) and cAMP response element (CRE, pcDNA3.1_hCRE) were added to perform transfection. After 24 hours, the medium was exchanged with a serum-free medium, followed by culture for 16 hours, and then each analog was treated for 6 hours. The expression level of luciferase, a reporter gene, by activated GLP-1R, was quantified by a luminometer, and the results are shown in Table 2.

[2] = system: rat islets; experiment: Glucose-dependent insulin secretion from rat islets, rat insulin ELISA (part I); format: cell-based; conditions: 28 mM glucose
Excerpt: Specifically, the pancreas of 8-week-old SD rats (Damul Science) was extracted, and islets were isolated.

[3] = Solubility by HPLC; format: physicochemical; conditions: at 10 mg/ml
[4] = biological target: human GLP-1R (human, UniProt P43220 24-463); experiment: cell-based or functional assay

Molecule | Emax (fold induction over basal) [1] [fold induction over basal] | Insulin secretion from rat islets ([2]; 10 nM analog, Table 4) [pg/mL] | Insulin secretion from rat islets ([2]; 100 nM analog, Table 4) [pg/mL] | Emax (fold induction over basal), CRE-luciferase reporter [4] [fold induction over basal] | other results
CCCCCCCCCC(=O)NCCCC[C@H](NC(=O)[C@H](CO)NC(=O)[C@@H]1CCCN1C(=O)CNC(=O)CNC(=O)[C@H](CC(N)=O)NC(=O)[C@H](CCCCN)NC(=O)[C@H](CC(C)C)NC(=O)[C@H](Cc1c[nH]c2ccccc12)NC(=O)[C@H](CCC(=O)O)NC(=O)[C@@H](NC(=O)[C@H](Cc1ccccc1)NC(=O)[C@H](CC(C)C)NC(=O)[C@H](CCCNC(=N)N)NC(=O)[C@@H](NC(=O)[C@H](C)NC(=O)[C@H](CSCC(=O)N[C@@H]1O[C@H](CO)[C@@H](O[C@@H]2O[C@H](CO)[C@@H](O[C@@H]3O[C@H](CO[C@H]4O[C@H](CO)[C@@H](O)[C@H](O)[C@@H]4O[C@@H]4O[C@H](CO)[C@@H](O[C@@H]5O[C@H](CO[C@]6(C(=O)OCc7ccccc7)C[C@H](O)[C@@H](NC(C)=O)[C@H]([C@H](O)[C@H](O)CO)O6)[C@H](O)[C@H](O)[C@H]5O)[C@H](O)[C@H]4NC(C)=O)[C@@H](O)[C@H](O[C@H]4O[C@H](CO)[C@@H](O)[C@H](O)[C@@H]4O[C@@H]4O[C@H](CO)[C@@H](O[C@@H]5O[C@H](CO[C@]6(C(=O)OCc7ccccc7)C[C@H](O)[C@@H](NC(C)=O)[C@H]([C@H](O)[C@H](O)CO)O6)[C@H](O)[C@H](O)[C@H]5O)[C@H](O)[C@H]4NC(C)=O)[C@@H]3O)[C@H](O)[C@H]2NC(C)=O)[C@H](O)[C@H]1NC(C)=O)NC(=O)[C@H](CCC(=O)O)NC(=O)[C@H](CCC(=O)O)NC(=O)[C@H](CCSC)NC(=O)[C@H](CCC(N)=O)NC(=O)[C@H](CCCCN)NC(=O)[C@H](CO)NC(=O)[C@H](CC(C)C)NC(=O)[C@H](CC(=O)O)NC(=O)[C@H](CO)NC(=O)[C@@H](NC(=O)[C@H](Cc1ccccc1)NC(=O)[C@@H](NC(=O)CNC(=O)[C@H](CCC(=O)O)NC(=O)CNC(=O)[C@@H](N)Cc1c[nH]cn1)[C@@H](C)O)[C@@H](C)O)C(C)C)[C@@H](C)CC)C(=O)O [AGM-212(E17C-11 sugar)] | 10.1 ± 1.2 |  |  |  | Insulin secretion from rat islets ([2]; 10 nM analog, Table 3): 7895.09 ± 2457.36 pg/mL; Insulin secretion from rat islets ([2]; 100 nM analog, Table 3): 9523.02 ± 2852.08 pg/mL
CCCCCCCCCC(=O)NCCCC[C@H](NC(=O)[C@H](CO)NC(=O)[C@@H]1CCCN1C(=O)CNC(=O)CNC(=O)[C@H](CSCC(=O)N[C@@H]1O[C@H](CO)[C@@H](O[C@@H]2O[C@H](CO)[C@@H](O[C@@H]3O[C@H](CO[C@H]4O[C@H](CO)[C@@H](O)[C@H](O)[C@@H]4O[C@@H]4O[C@H](CO)[C@@H](O[C@@H]5O[C@H](CO[C@]6(C(=O)OCc7ccccc7)C[C@H](O)[C@@H](NC(C)=O)[C@H]([C@H](O)[C@H](O)CO)O6)[C@H](O)[C@H](O)[C@H]5O)[C@H](O)[C@H]4NC(C)=O)[C@@H](O)[C@H](O[C@H]4O[C@H](CO)[C@@H](O)[C@H](O)[C@@H]4O[C@@H]4O[C@H](CO)[C@@H](O[C@@H]5O[C@H](CO[C@]6(C(=O)OCc7ccccc7)C[C@H](O)[C@@H](NC(C)=O)[C@H]([C@H](O)[C@H](O)CO)O6)[C@H](O)[C@H](O)[C@H]5O)[C@H](O)[C@H]4NC(C)=O)[C@@H]3O)[C@H](O)[C@H]2NC(C)=O)[C@H](O)[C@H]1NC(C)=O)NC(=O)[C@H](CCCCN)NC(=O)[C@H](CC(C)C)NC(=O)[C@H](Cc1c[nH]c2ccccc12)NC(=O)[C@H](CCC(=O)O)NC(=O)[C@@H](NC(=O)[C@H](Cc1ccccc1)NC(=O)[C@H](CC(C)C)NC(=O)[C@H](CCCNC(=N)N)NC(=O)[C@@H](NC(=O)[C@H](C)NC(=O)[C@H](CSCC(=O)N[C@@H]1O[C@H](CO)[C@@H](O[C@@H]2O[C@H](CO)[C@@H](O[C@@H]3O[C@H](CO[C@H]4O[C@H](CO)[C@@H](O)[C@H](O)[C@@H]4O[C@@H]4O[C@H](CO)[C@@H](O[C@@H]5O[C@H](CO[C@]6(C(=O)OCc7ccccc7)C[C@H](O)[C@@H](NC(C)=O)[C@H]([C@H](O)[C@H](O)CO)O6)[C@H](O)[C@H](O)[C@H]5O)[C@H](O)[C@H]4NC(C)=O)[C@@H](O)[C@H](O[C@H]4O[C@H](CO)[C@@H](O)[C@H](O)[C@@H]4O[C@@H]4O[C@H](CO)[C@@H](O[C@@H]5O[C@H](CO[C@]6(C(=O)OCc7ccccc7)C[C@H](O)[C@@H](NC(C)=O)[C@H]([C@H](O)[C@H](O)CO)O6)[C@H](O)[C@H](O)[C@H]5O)[C@H](O)[C@H]4NC(C)=O)[C@@H]3O)[C@H](O)[C@H]2NC(C)=O)[C@H](O)[C@H]1NC(C)=O)NC(=O)[C@H](CCC(=O)O)NC(=O)[C@H](CCC(=O)O)NC(=O)[C@H](CCSC)NC(=O)[C@H](CCC(N)=O)NC(=O)[C@H](CCCCN)NC(=O)[C@H](CO)NC(=O)[C@H](CC(C)C)NC(=O)[C@H](CC(=O)O)NC(=O)[C@H](CO)NC(=O)[C@@H](NC(=O)[C@H](Cc1ccccc1)NC(=O)[C@@H](NC(=O)CNC(=O)[C@H](CCC(=O)O)NC(=O)CNC(=O)[C@@H](N)Cc1c[nH]cn1)[C@@H](C)O)[C@@H](C)O)C(C)C)[C@@H](C)CC)C(=O)O [AGM-212(E17C-11 sugar & N28C-11 sugar)] | 9.8 ± 1.3 | 11250.94 ± 624.53 | 22183.40 ± 830.19 |  | solubility ([3]; H2O): < 8.3 mg/mL; solubility ([3]; PBS): < 9.5 mg/mL
CCCCCCCCCC(=O)NCCCC[C@H](NC(=O)[C@H](CO)NC(=O)[C@@H]1CCCN1C(=O)CNC(=O)CNC(=O)[C@H](CC(N)=O)NC(=O)[C@H](CCCCN)NC(=O)[C@H](CC(C)C)NC(=O)[C@H](Cc1c[nH]c2ccccc12)NC(=O)[C@H](CSCC(=O)N[C@@H]1O[C@H](CO)[C@@H](O[C@@H]2O[C@H](CO)[C@@H](O[C@@H]3O[C@H](CO[C@H]4O[C@H](CO)[C@@H](O)[C@H](O)[C@@H]4O[C@@H]4O[C@H](CO)[C@@H](O[C@@H]5O[C@H](CO[C@]6(C(=O)OCc7ccccc7)C[C@H](O)[C@@H](NC(C)=O)[C@H]([C@H](O)[C@H](O)CO)O6)[C@H](O)[C@H](O)[C@H]5O)[C@H](O)[C@H]4NC(C)=O)[C@@H](O)[C@H](O[C@H]4O[C@H](CO)[C@@H](O)[C@H](O)[C@@H]4O[C@@H]4O[C@H](CO)[C@@H](O[C@@H]5O[C@H](CO[C@]6(C(=O)OCc7ccccc7)C[C@H](O)[C@@H](NC(C)=O)[C@H]([C@H](O)[C@H](O)CO)O6)[C@H](O)[C@H](O)[C@H]5O)[C@H](O)[C@H]4NC(C)=O)[C@@H]3O)[C@H](O)[C@H]2NC(C)=O)[C@H](O)[C@H]1NC(C)=O)NC(=O)[C@@H](NC(=O)[C@H](Cc1ccccc1)NC(=O)[C@H](CC(C)C)NC(=O)[C@H](CCCNC(=N)N)NC(=O)[C@@H](NC(=O)[C@H](C)NC(=O)[C@H](CSCC(=O)N[C@@H]1O[C@H](CO)[C@@H](O[C@@H]2O[C@H](CO)[C@@H](O[C@@H]3O[C@H](CO[C@H]4O[C@H](CO)[C@@H](O)[C@H](O)[C@@H]4O[C@@H]4O[C@H](CO)[C@@H](O[C@@H]5O[C@H](CO[C@]6(C(=O)OCc7ccccc7)C[C@H](O)[C@@H](NC(C)=O)[C@H]([C@H](O)[C@H](O)CO)O6)[C@H](O)[C@H](O)[C@H]5O)[C@H](O)[C@H]4NC(C)=O)[C@@H](O)[C@H](O[C@H]4O[C@H](CO)[C@@H](O)[C@H](O)[C@@H]4O[C@@H]4O[C@H](CO)[C@@H](O[C@@H]5O[C@H](CO[C@]6(C(=O)OCc7ccccc7)C[C@H](O)[C@@H](NC(C)=O)[C@H]([C@H](O)[C@H](O)CO)O6)[C@H](O)[C@H](O)[C@H]5O)[C@H](O)[C@H]4NC(C)=O)[C@@H]3O)[C@H](O)[C@H]2NC(C)=O)[C@H](O)[C@H]1NC(C)=O)NC(=O)[C@H](CCC(=O)O)NC(=O)[C@H](CCC(=O)O)NC(=O)[C@H](CCSC)NC(=O)[C@H](CCC(N)=O)NC(=O)[C@H](CCCCN)NC(=O)[C@H](CO)NC(=O)[C@H](CC(C)C)NC(=O)[C@H](CC(=O)O)NC(=O)[C@H](CO)NC(=O)[C@@H](NC(=O)[C@H](Cc1ccccc1)NC(=O)[C@@H](NC(=O)CNC(=O)[C@H](CCC(=O)O)NC(=O)CNC(=O)[C@@H](N)Cc1c[nH]cn1)[C@@H](C)O)[C@@H](C)O)C(C)C)[C@@H](C)CC)C(=O)O [AGM-212(E17C-11 sugar & E24C-11 sugar)] | 9.7 ± 1.2 | 6763.40 ± 32.83 | 14650.94 ± 3305.28 |  | 
B1 |  |  |  | 10.1 | 
B2 |  |  |  | 9.7 | 
B3 |  |  |  | 9.8 | 
